Measured values: patent US20130190200A1, “SNP FOR PREDICTING THE SENSITIVITY TO ANTICANCER TARGETED THERAPEUTIC FORMULATION” (Korea Research Institute of Bioscience and Biotechnology, priority 2010, published 2013)

Assays:
[1] = system: metastatic cancer patients; experiment: Clinical association analysis of drug response (RECIST criteria) on subjects treated with anticancer targeted drugs; type: in vivo, human; conditions: homozygous substitution alleles of ANXA11 rs1049550 and homozygous or heterozygous substitution alleles of LINS1 rs11247226; P=0.025, 0.019
Description: (§1) The prediction of clinical outcomes of the corresponding patients was based on the NCCN surveillance guidelines (www.nccn.org), and the determination of chemosensitivity to anticancer drugs were based on the RECIST criteria (Therasse et al., J Natl Cancer Inst 2000; 92:205-16).

[2] = system: recurrent and metastatic colorectal cancer patients; experiment: Clinical association analysis related to survival on subjects treated with anticancer targeted drugs; type: in vivo, human
Protocol: as §1
Association analysis was performed on the SNP genotypes sensitive to the individual anticancer drugs obtained in steps (1) and (2) in colorectal cancer patients whose treatment with the corresponding drugs was terminated.

bevacizumab was tested, and the “disease-control response rate, in words” value [1] was “significantly high disease-control response rate”, the “sensitivity and survival, in words (FIG. 2)” value ([2]; homozygous or heterozygous substitution alleles of ITGA3 rs2230392 vs homozygous reference alleles) was “greater sensitivity and longer progression-free survival and overall survival” and the “mean overall survival (OS)” value ([2]; patients carrying homozygous or heterozygous substitution alleles of ITGA3 rs2230392, P=0.006 vs homozygous reference) was 22.5±2.1 months. The “mean progression-free survival (PFS)” value ([2]; patients carrying homozygous or heterozygous substitution alleles of ITGA3 rs2230392, P=0.018 vs homozygous reference) was 8.7±0.7 months, the “mean overall survival (OS)” value ([2]; patients with homozygous reference alleles of ITGA3 rs2230392, P=0.006) was 13.4±1.9 months and the “mean progression-free survival (PFS)” value ([2]; patients with homozygous reference alleles of ITGA3 rs2230392, P=0.018) was 5.7±0.7 months.
